Laboratory results reported in PMC8348110, “A Novel Peptide Derived from the Transmembrane Domain of Romo1 Is a Promising Candidate for Sepsis Treatment and Multidrug-Resistant Bacteria” (International Journal of Molecular Sciences, 2021).
In brackets after ≈: the same amount, converted by molar mass. Residues, ends and D or L forms follow the SMILES beside them.

Tests used:
[1] = tested on: Pseudomonas aeruginosa ATCC 27853; assay type: cell-based; settings: ATCC 27853, 1 h
Description: (§1) The minimum bactericidal concentration (MBC) was determined as previously described with minor modifications. Briefly, bacteria were cultured in the mid-log phase and diluted to 5 × 10^5 colony-forming unit (CFU)/mL in 10 mM sodium phosphate buffer (pH 7.4) with a 1% volume of TS broth. They were incubated for 1 h with various peptides which were two-fold diluted serially from 64 μg/mL to 0 μg/mL concentrations in a 96-well plate. The samples were inoculated TS agar plate and incubated overnight at 37 °C. The value of MBC was determined at the lowest concentrations at which no colonies were identified.
(§2) We used the CFU counting method to measure antibacterial activity, with all bacteria cultured to the mid-log phase in an appropriate broth medium. Bacterial CFUs were counted after overnight culture at 37 °C on TS or LB agar plates. The MBC value and antibacterial activity in blood components were determined as previously described. Mouse and human whole blood were collected and diluted with PBS (pH 7.4) to measure the ex vivo antibacterial activity of AMPR-22. For that test, AMPR-22 (10 μg) was added to each whole blood solution and incubated at 37 °C with shaking at 200 rpm. At each time point, it was incubated with bacteria (1 × 10^3 CFU) for 30 min. Each sample was inoculated on an LB agar plate, and CFU counting was performed. To measure the in vivo activity of AMPR-22, 1 × 10^8 CFU of bacteria were injected into BALB/c mice, and an hour later, 10 mg/kg of the test peptides were injected. Blood samples were collected by tail cut, serially diluted with PBS (pH 7.4), and inoculated on LB-agar plates, followed by CFU counting. To estimate the functional half-life of AMPR-22, 40 mg/kg of each tested peptide were injected into mice. Whole blood sampling was performed by cardiac puncture, and the plasma was isolated by centrifugation (2000× g, 15 min). The isolated plasma was incubated with bacteria (1 × 10^3 CFU) for an hour, and then the CFU counting method was performed.

[2] = tested on: Staphylococcus aureus ATCC 29213; assay type: cell-based; settings: ATCC 29213, 1 h, pH 7.4
Description: as §1, §2

[3] = tested on: Methicillin-resistant S. aureus (MRSA) ATCC 33591; assay type: cell-based, Staphylococcus aureus; settings: ATCC 33591, 1 h
Description: as §1, §2

[4] = tested on: Carbapenem-resistant P. aeruginosa (CRPA), clinical isolate; assay type: cell-based, Pseudomonas aeruginosa; settings: 1 h
Text: Acinetobacter baumannii (ATCC 19606), B. subtilis (ATCC 6633), E. aerogenes (ATCC 13048), E. coli (ATCC 25922), E. faecalis (ATCC 19433), E. faecium (ATCC 19434), K. pneumoniae (ATCC 13883), P. aeruginosa (ATCC 27853), S. aureus (ATCC 29213), S. sindenensis (ATCC 23963), and MRSA (ATCC 33591) were purchased from the American Type Culture Collection (ATCC; Gaithersburg, MD, USA). Streptococcus pneumoniae (NCCP 14585), vancomycin-resistant E. faecium (NCCP 11522), and vancomycin-resistant S. aureus (NCCP 15872) were purchased from the National Culture Collection for Pathogens (NCCP; Cheongju, Korea). The isolation and use of carbapenem-resistant bacterial strains from a patient were approved (2015AN0129) by the Institutional Review Board (IRB) of Korea University Hospital. CRPA, CRKP, and CRAB were clinically isolated in Korea University Hospital (Seoul, Korea). CRPA was confirmed to be resistant to piperacillin, piperacillin-tazobactam, ceftazidime, imipenem, meropenem, gentamicin, amikacin, and ciprofloxacin. CRAB was confirmed to be resistant to piperacillin, piperacillin-tazobactam, cefepime, ceftazidime, imipenem, meropenem, gentamicin, amikacin, and ciprofloxacin. CRKP was confirmed to be resistant to piperacillin-tazobactam, cefepime, ceftazidime, imipenem, gentamicin, and ciprofloxacin. All strains were stored at –80 °C in 50% glycerol and 50% Luria-Bertani (LB) or tryptic soy (TS) broth, grown on LB or TS plates, and aerated at 37 °C.
as §1, §2

Row | SMILES | MBC Value, P. aeruginosa [1] [mg/L] | MBC Value, S. aureus [2] [mg/L] | MBC Value, MRSA [3] [mg/L] | MBC Value, CRPA [4] [mg/L]
1 | CC[C@H](C)[C@H](NC(=O)CNC(=O)[C@H](CCSC)NC(=O)CNC(=O)[C@@H](NC(=O)[C@H](C)NC(=O)[C@H](CCSC)NC(=O)[C@H](Cc1ccccc1)NC(=O)[C@@H](NC(=O)CNC(=O)[C@H](Cc1ccccc1)NC(=O)[C@@H](NC(=O)CNC(=O)CNC(=O)[C@H](CO)NC(=O)[C@H](CCCCN)NC(=O)[C@H](CCSC)NC(=O)[C@H](CCSC)NC(=O)[C@H](CCCCN)NC(=O)[C@@H](N)CCCCN)[C@@H](C)O)[C@@H](C)O)[C@@H](C)CC)C(=O)N[C@@H](CCCNC(=N)N)C(=O)O [K2] (H-KKMMKSGGTFGTFMAIGMGIR-OH) | 16 (≈ 7.11 µM) | 32 (≈ 14.2 µM) | 64 (≈ 28.4 µM) | 16 (≈ 7.11 µM)
2 | CC[C@H](C)[C@H](NC(=O)CNC(=O)[C@H](CCSC)NC(=O)CNC(=O)[C@@H](NC(=O)[C@H](C)NC(=O)[C@H](CCSC)NC(=O)[C@H](Cc1ccccc1)NC(=O)[C@@H](NC(=O)CNC(=O)[C@H](Cc1ccccc1)NC(=O)[C@@H](NC(=O)CNC(=O)CNC(=O)[C@H](CCCCN)NC(=O)[C@H](CCCCN)NC(=O)[C@H](CCSC)NC(=O)[C@H](CCSC)NC(=O)[C@H](CCCCN)NC(=O)[C@@H](N)CCCCN)[C@@H](C)O)[C@@H](C)O)[C@@H](C)CC)C(=O)N[C@@H](CCCNC(=N)N)C(=O)O [K3] (H-KKMMKKGGTFGTFMAIGMGIR-OH) | 8 (≈ 3.49 µM) | 16 (≈ 6.98 µM) | 32 (≈ 14 µM) | 8 (≈ 3.49 µM)
3 | CC[C@H](C)[C@H](NC(=O)CNC(=O)[C@H](CCSC)NC(=O)CNC(=O)[C@@H](NC(=O)[C@H](C)NC(=O)[C@H](CCSC)NC(=O)[C@H](Cc1ccccc1)NC(=O)[C@@H](NC(=O)CNC(=O)[C@H](Cc1ccccc1)NC(=O)[C@H](CCCCN)NC(=O)CNC(=O)CNC(=O)[C@H](CCCCN)NC(=O)[C@H](CCCCN)NC(=O)[C@H](CCSC)NC(=O)[C@H](CCSC)NC(=O)[C@@H](N)CCCCN)[C@@H](C)O)[C@@H](C)CC)C(=O)N[C@@H](CCCNC(=N)N)C(=O)O [d58K] (H-KMMKKGGKFGTFMAIGMGIR-OH) | 2 (≈ 0.913 µM) | 8 (≈ 3.65 µM) | 2 (≈ 0.913 µM) | 8 (≈ 3.65 µM)
4 | CC[C@H](C)[C@H](NC(=O)CNC(=O)[C@H](CCSC)NC(=O)CNC(=O)[C@@H](NC(=O)[C@H](C)NC(=O)[C@H](CCSC)NC(=O)[C@H](Cc1ccccc1)NC(=O)[C@@H](NC(=O)CNC(=O)[C@H](Cc1ccccc1)NC(=O)[C@H](CCCCN)NC(=O)CNC(=O)CNC(=O)[C@H](CCCCN)NC(=O)[C@H](CCCCN)NC(=O)[C@H](CCSC)NC(=O)[C@H](CCCCN)NC(=O)[C@@H](N)CCCCN)[C@@H](C)O)[C@@H](C)CC)C(=O)N[C@@H](CCCNC(=N)N)C(=O)O [d60M] (H-KKMKKGGKFGTFMAIGMGIR-OH) | 2 (≈ 0.915 µM) | 4 (≈ 1.83 µM) | 1 (≈ 0.457 µM) | 4 (≈ 1.83 µM)
5 | CC[C@H](C)[C@H](NC(=O)CNC(=O)[C@H](CCSC)NC(=O)CNC(=O)[C@@H](NC(=O)[C@H](C)NC(=O)[C@H](CCSC)NC(=O)[C@H](Cc1ccccc1)NC(=O)[C@@H](NC(=O)CNC(=O)[C@H](Cc1ccccc1)NC(=O)[C@H](CCCCN)NC(=O)CNC(=O)CNC(=O)[C@H](CCCCN)NC(=O)[C@H](CCSC)NC(=O)[C@H](CCSC)NC(=O)[C@H](CCCCN)NC(=O)[C@@H](N)CCCCN)[C@@H](C)O)[C@@H](C)CC)C(=O)N[C@@H](CCCNC(=N)N)C(=O)O [d62K] (H-KKMMKGGKFGTFMAIGMGIR-OH) | 2 (≈ 0.913 µM) | 8 (≈ 3.65 µM) | 8 (≈ 3.65 µM) | 8 (≈ 3.65 µM)
6 | CC[C@H](C)[C@H](NC(=O)CNC(=O)[C@H](CCSC)NC(=O)CNC(=O)[C@@H](NC(=O)[C@H](C)NC(=O)[C@H](CCSC)NC(=O)[C@H](Cc1ccccc1)NC(=O)[C@@H](NC(=O)CNC(=O)[C@H](Cc1ccccc1)NC(=O)[C@H](CCCCN)NC(=O)CNC(=O)[C@H](CCCCN)NC(=O)[C@H](CCCCN)NC(=O)[C@H](CCSC)NC(=O)[C@H](CCSC)NC(=O)[C@H](CCCCN)NC(=O)[C@@H](N)CCCCN)[C@@H](C)O)[C@@H](C)CC)C(=O)N[C@@H](CCCNC(=N)N)C(=O)O [d64G] (H-KKMMKKGKFGTFMAIGMGIR-OH) | 2 (≈ 0.885 µM) | 2 (≈ 0.885 µM) | 1 (≈ 0.442 µM) | 4 (≈ 1.77 µM)
7 | CC[C@H](C)[C@H](NC(=O)CNC(=O)[C@H](CCSC)NC(=O)CNC(=O)[C@@H](NC(=O)[C@H](C)NC(=O)[C@H](CCSC)NC(=O)[C@H](Cc1ccccc1)NC(=O)[C@@H](NC(=O)CNC(=O)[C@H](Cc1ccccc1)NC(=O)CNC(=O)CNC(=O)[C@H](CCCCN)NC(=O)[C@H](CCCCN)NC(=O)[C@H](CCSC)NC(=O)[C@H](CCSC)NC(=O)[C@H](CCCCN)NC(=O)[C@@H](N)CCCCN)[C@@H](C)O)[C@@H](C)CC)C(=O)N[C@@H](CCCNC(=N)N)C(=O)O [d66K] (H-KKMMKKGGFGTFMAIGMGIR-OH) | 4 (≈ 1.83 µM) | 8 (≈ 3.65 µM) | 4 (≈ 1.83 µM) | 4 (≈ 1.83 µM)
8 | CC[C@H](C)[C@H](NC(=O)CNC(=O)[C@H](CCSC)NC(=O)CNC(=O)[C@@H](NC(=O)[C@H](C)NC(=O)[C@H](CCSC)NC(=O)[C@H](Cc1ccccc1)NC(=O)[C@@H](NC(=O)CNC(=O)[C@H](CCCCN)NC(=O)CNC(=O)CNC(=O)[C@H](CCCCN)NC(=O)[C@H](CCCCN)NC(=O)[C@H](CCSC)NC(=O)[C@H](CCSC)NC(=O)[C@H](CCCCN)NC(=O)[C@@H](N)CCCCN)[C@@H](C)O)[C@@H](C)CC)C(=O)N[C@@H](CCCNC(=N)N)C(=O)O [d67F] (H-KKMMKKGGKGTFMAIGMGIR-OH) | 4 (≈ 1.84 µM) | 8 (≈ 3.69 µM) | 4 (≈ 1.84 µM) | 8 (≈ 3.69 µM)
9 | CC[C@H](C)[C@H](NC(=O)CNC(=O)[C@H](CCSC)NC(=O)CNC(=O)[C@@H](NC(=O)[C@H](C)NC(=O)[C@H](CCSC)NC(=O)[C@@H](NC(=O)CNC(=O)[C@H](Cc1ccccc1)NC(=O)[C@H](CCCCN)NC(=O)CNC(=O)CNC(=O)[C@H](CCCCN)NC(=O)[C@H](CCCCN)NC(=O)[C@H](CCSC)NC(=O)[C@H](CCSC)NC(=O)[C@H](CCCCN)NC(=O)[C@@H](N)CCCCN)[C@@H](C)O)[C@@H](C)CC)C(=O)N[C@@H](CCCNC(=N)N)C(=O)O [d70F] (H-KKMMKKGGKFGTMAIGMGIR-OH) | 128 (≈ 59 µM) | – | 128 (≈ 59 µM) | >256
10 | CC[C@H](C)[C@H](NC(=O)CNC(=O)[C@H](CCSC)NC(=O)CNC(=O)[C@H](C)NC(=O)[C@H](CCSC)NC(=O)[C@H](Cc1ccccc1)NC(=O)[C@@H](NC(=O)CNC(=O)[C@H](Cc1ccccc1)NC(=O)[C@H](CCCCN)NC(=O)CNC(=O)CNC(=O)[C@H](CCCCN)NC(=O)[C@H](CCCCN)NC(=O)[C@H](CCSC)NC(=O)[C@H](CCSC)NC(=O)[C@H](CCCCN)NC(=O)[C@@H](N)CCCCN)[C@@H](C)O)C(=O)N[C@@H](CCCNC(=N)N)C(=O)O [d73I] (H-KKMMKKGGKFGTFMAGMGIR-OH) | >256 | – | >256 | >256
